# Ends that are not written are not given here.
# How the values were obtained:
# [1] = tested on: rat vascular smooth muscle cells; test: Production of reactive oxygen species (superoxide) in vitro, loss of tempoamine signal by electron spin resonance; assay type: cell-based; details: FIG. 2
# Protocol: Example 1 details a study where inhibitors and activators of δPKC were administered to rat vascular smooth muscle cells in vitro. Cells were incubated in presence of (1) the agonist Tat-conjugated peptide ψδRACK (SEQ ID NO:5); (2) phorbol 12-myristate 13-acetate (PMA); or (3) the antagonist Tat-conjugated peptide δV1-1 (SEQ ID NO:3) plus PMA. A control cell sample was left untreated. Tempoamine ((2,2,6,6-tetramethyl-1-piperidi-nyloxy-4-amine)) was added to each culture and the loss of tempoamine signal was measured by electron spin resonance to measure superoxide production.
# PMA, a non-isozyme specific activator of PKC, stimulated a 3-4 fold increase in ROS in the cells. […] Inhibition of this PKC isoform caused a decrease in PMA-stimulated ROS production.
# Rat vascular smooth muscle cells were harvested from Zucker lean aortas by enzymatic digestion and cultured in Dulbecco's modified eagle's medium with 10% fetal bovine serum and penicillin/streptomycin under standard tissue culture conditions. The cells were incubated in the presence tempoamine ((2,2,6,6-tetramethyl-1-piperidi-nyloxy4-amine)) (100 μM) and in the presence of (1) the agonist Tat-conjugated peptide ψδRACK (10 μM); (2) phorbol 12-myristate 13-acetate (PMA, 500 ng/mL); or (3) the antagonist Tat-conjugated peptide δV1-1 (10 μM) plus PMA (500 ng/mL). A control cell sample was left untreated. The loss of tempoamine signal was measured by electron spin resonance to measure superoxide production.
# [2] = tested on: Zucker obese rats (fa/fa); test: ROS (superoxide) production in aorta tissue homogenates of Zucker rats, electron spin resonance; assay type: in vivo, rat; details: Zucker obese rats treated, versus Zucker lean control, FIG. 3A
# Protocol: Tissue homogenates from the aortas of Zucker obese rats and of Zucker lean (Fa/fa) rats were prepared and analyzed for superoxide production using electron spin resonance with a tempomaine probe.
# Cbfa-1 = Cbfa-1 gene expression in rat vascular smooth muscle cells, TaqMan real time PCR; assay type: cell-based; details: cells incubated with Tat-conjugated peptide versus untreated control, FIG. 5C
# Protocol: (§1) In another study, described in Example 4, the gene transcriptional effects of insulin and the selective inhibition of PKC isoforms was examined using real-time polymerase chain reaction (TaqMan® PCR). In vitro cells were incubated with insulin and in the presence or absence of a δPKC inhibitor, δV1-1 peptide. The expression of TGF-β and core binding factor α-1 (Cbf α-1) were monitored using TaqMan® real time PCR. Rat vascular smooth muscle cells passages three through seven were prepared as describe in Example 1B. The cells were incubated with insulin (100 nm, SourceLife Technologies) or with the δPKC inhibitor peptide δV1-1, prepared as described in Example 1A. RNA isolation and purification were performed as described in Example 2 and TaqMan® real time PCR was used to analyze the relative quantity TGF-β1 and core binding factor α-1 (Cbf α-1). PCR primers and probes were obtained commercially from Applied Biosystems, Inc. and the PCR was performed on an Applied Biosystems ABI Prism 7700.
# TGF-β1 = TGF-β1 gene expression in rat vascular smooth muscle cells, TaqMan real time PCR; assay type: cell-based
# Protocol: as §1
# δPKC = test: Translocation of δPKC in cells incubated with insulin, Western blot of cytosol and membrane fractions; assay type: cell-based, rat; details: bovine insulin 100 nM, up to 24 hours, semi-quantitative from Western blot, FIG. 4B
# Protocol: Example 3 describes a study conducted to examine to role of PKC isozymes, and in particular δPKC, in vascular fibrosis, which is accelerated during the insulin-resistant, pre-diabetic state in animals. In this study, rat vascular smooth muscle cells were incubated with bovine insulin. Translocation of PKC isozymes was assessed by Western blot analysis of the cystosolic and membrane (particulate) fractions of the cells. The subcellular localization of various PKC isozymes was assessed by […] by probing the blot with isozyme specific antibodies, such as anti-δPKC, anti-αPKC, and anti-ε PKC, etc. […]
# Rat vascular smooth muscle cells passages three through seven were prepared as described in Example 1 B. The cells were incubated with bovine insulin (100 nM) for time periods of up to 24 hours. Activation of various PKC isozymes was analyzed by harvesting the cells and separating the protein into cytosolic and membrane (particulate) fractions and examining both fractions by Western blot using anti-δPKC, anti-αPKC, and anti-ε PKC for the presence of different PKC isoforms. The activity of the isoform was assessed as amount of PKC in the membrane fraction divided by the total amount of protein in both fractions (cytosol and membrane), normalized to control.
compound,measurement,setting,value
"CCCCCCCCCCCCCC(=O)O[C@@H]1[C@@H](C)[C@@]2(O)[C@@H](C=C(CO)C[C@]3(O)C(=O)C(C)=C[C@@H]23)[C@@H]2C(C)(C)[C@]12OC(C)=O [PMA, phorbol 12-myristate 13-acetate, reference compound]",increase in ROS in the cells,"[1]; PMA 500 ng/mL, tempoamine 100 μM",3-4 fold
O=C1CSC(=O)N1 [TZD1],ROS production in aorta homogenates,[2],brought the ROS production down to control levels
"MRAAEDPM (not fully specified; also: Tat conjugated; listed as Rattus norvegicus) [ψδRACK, δPKC agonist peptide, amino acids 74-81 of δPKC]",production of ROS,"[1]; Tat-conjugated peptide 10 μM, tempoamine 100 μM, versus untreated control",increased production of ROS
"SFNSYELGSL (not fully specified; also: Tat conjugated; listed as Rattus norvegicus) [δV1-1, δPKC antagonist peptide, amino acids 8-17 of δPKC]",Cbfa-1 gene expression,Cbfa-1,inhibited
same,ROS production stimulated by PMA,[1]; Tat-conjugated peptide 10 μM co-incubated with PMA 500 ng/mL,effective to reverse or inhibit a significant part of the ROS production stimulated by PMA
same,TGF-β1 expression,"TGF-β1; cells incubated with Tat-conjugated peptide versus untreated control, FIG. 5B",inhibited
insulin: bovine insulin incubated with rat vascular smooth muscle cells,normalized TGF-β expression,"TGF-β1; cells incubated with insulin (100 nm) versus untreated control, FIG. 5A",did not appear to stimulate
same,"relative δPKC activity (membrane fraction / total, normalized to control)",δPKC,about 1.7

# Reference: patent US20050267030A1, “Use of deltaPKC peptides for modulation of reactive oxygen species” (priority 2004, published 2005)
